Molecular target: Low molecular weight phosphotyrosine protein phosphatase ACP1 (Homo sapiens) (UniProt P24666)
Test: Inhibition of human cytoplasmic protein tyrosine phosphatase A assessed as change in enzyme activity at pH 7

Low molecular weight phosphotyrosine protein phosphatase ACP1 (Homo sapiens), sequence (P24666 whole entry, looked up): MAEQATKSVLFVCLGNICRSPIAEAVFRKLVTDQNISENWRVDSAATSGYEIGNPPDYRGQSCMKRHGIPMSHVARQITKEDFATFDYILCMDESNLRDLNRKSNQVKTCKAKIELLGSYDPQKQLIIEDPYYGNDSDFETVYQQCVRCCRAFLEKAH

IC50: 72 µM
Compound: O=NC(Cc1ccnc2ccccc12)C(=O)O (stereo unspecified) [2-(hydroxyimino)-3-(quinolin-4-yl)propanoic acid]
